Laboratory results from patent US11752120B2, “Use of succinic acid in increasing sensitivity of bacteria to antibiotics” (SUN YAT-SEN UNIVERSITY, priority 2018, dated 2023).

Experiments:
[1] = tested on: clinical Escherichia coli YT1-30; assay: Minimum inhibitory concentration (MIC), NCCLS method, 30 clinical strains; assay type: cell-based; design: Minimum inhibitory concentration (MIC): unit not given here
Excerpt: (§1) Escherichia coli (E. coli) are one of the most common bacteria in the clinic. 30 strains of E. coli obtained from the clinic were named YT1-30. The minimum inhibitory concentrations (MIC) of 8 antibiotics against these 30 clinically obtained E. coli was detected according to the NCCLS method, and E. coli K12 was used as a control.

[2] = tested on: clinical Escherichia coli YT16 and YT28; assay: Viable bacteria count / survival rate after antibiotic with or without succinic acid in M9 medium; assay type: cell-based
Protocol: A single colony of clinical bacteria was picked from a solid LB plate and was inoculated in 5 mL LB liquid medium for culture at 37° C. and 200 rpm for 16 hours, and then was inoculated in 100 mL LB liquid medium at a ratio of 1:100 (v/v) and was cultured at 37° C. until OD600 value was 1.0. 20 mL of bacterial solution was collected and centrifuged at 8000 rpm for 5 minutes, the supernatant was cleared and bacterial cells were washed with an equal volume of 0.85% normal saline, and finally the bacterial cells were suspended with 1×M9 basic medium (containing 10 mM acetate), the OD value of the bacterial solution was adjusted to 0.5, and then 5 mL of the bacterial solution was aliquoted in a test tube for the following experimental studies.
The survival rates of the clinical bacteria in medium with adding succinic acid and without adding succinic acid at the same antibiotic concentration were compared.
The formula is the number of viable bacteria when different concentrations of succinic acid were added/the number of viable bacteria without adding succinic acid×100%.
In order to study whether clinical Escherichia coli has effect on penicillin antibiotics after adding succinic acid, two clinical Escherichia coli samples of YT16 and YT28 were prepared according to step 2 in Embodiment 1, 20 mM succinic acid and 3 kinds of penicillin were added respectively, […], the number of viable bacteria was counted, and the survival rate was calculated. […]

E. coli K12 = assay: Minimum inhibitory concentration (MIC), NCCLS method, control strain; assay type: cell-based, Escherichia coli; conditions: no unit in table, MIC in μg/mL
Excerpt: as §1

[3] = tested on: clinical Escherichia coli biofilm; assay: In vitro bactericidal assay of biofilm; assay type: cell-based; conditions: catheter biofilm, 6 hours; succinic acid 580 mg/kg; ampicillin 2000 mg/kg for YT16, 500 mg/kg for YT28
Protocol: […] of clinical Escherichia coli (YT3, YT11, YT12, YT16, YT17, YT21, YT22, YT23, YT28, YT33) were picked, monocloned into LB medium, and cultured overnight, then were transferred into 2 mL fresh LB medium at 1:200, and added with a 6 mm PE-50 biological catheter that was sterilized by UV, and cultured in a 37° C. incubator for culture for 24 hours. The bacterial solution was replaced with 1 mL of LB medium daily, and the catheter was continuously cultured for 3 days. The prepared biofilm was washed 5 times with 1 mL of sterile normal saline, and then placed in a 1.5 mL EP tube.
The assay was divided into 4 groups: normal saline control group, succinic acid group, ampicillin group, ampicillin+succinic acid group, and the catheters were treated in a shaker at 37° C. and 200 rpm. A dosage of succinic acid was 580 mg/kg, and a dosage of ampicillin was 2000 mg/kg for YT16, and 500 mg/kg for YT28. After 6 hours, ultrasonic cleaning was conducted for 15 minutes, the biofilm on the catheter was eluted and thoroughly mixed, and after gradient dilution, spot plate counting was performed. The formula for calculating the bacterial survival rate is: number of viable bacteria in each group/number of viable bacteria in the control group×100%.

CC1(C)S[C@@H]2[C@H](NC(=O)[C@H](N)c3ccccc3)C(=O)N2[C@H]1C(=O)O [Ampicillin]
Minimum inhibitory concentration (MIC) ([1]; strain YT1): 25000 | Minimum inhibitory concentration (MIC) ([1]; strain YT2): 6250 | Minimum inhibitory concentration (MIC) ([1]; strain YT3): 390.625 | Minimum inhibitory concentration (MIC) ([1]; strain YT4): 6250 | Minimum inhibitory concentration (MIC) ([1]; strain YT5): 25000 | Minimum inhibitory concentration (MIC) ([1]; strain YT6): 1562.5 | Minimum inhibitory concentration (MIC) ([1]; strain YT7): 1562.5 | Minimum inhibitory concentration (MIC) ([1]; strain YT8): 1562.5 | Minimum inhibitory concentration (MIC) ([1]; strain YT9): 1562.5 | Minimum inhibitory concentration (MIC) ([1]; strain YT10): 6250 | Minimum inhibitory concentration (MIC) ([1]; strain YT11): 1562.5 | Minimum inhibitory concentration (MIC) ([1]; strain YT12): 6250 | Minimum inhibitory concentration (MIC) ([1]; strain YT13): 6250 | Minimum inhibitory concentration (MIC) ([1]; strain YT14): 6250 | Minimum inhibitory concentration (MIC) ([1]; strain YT15): 6250 | Minimum inhibitory concentration (MIC) ([1]; strain YT16): 6250 | Minimum inhibitory concentration (MIC) ([1]; strain YT17): 6250 | Minimum inhibitory concentration (MIC) ([1]; strain YT18): 6250 | Minimum inhibitory concentration (MIC) ([1]; strain YT19): 1562.5 | Minimum inhibitory concentration (MIC) ([1]; strain YT20): 1562.5 | Minimum inhibitory concentration (MIC) ([1]; strain YT21): 1562.5 | Minimum inhibitory concentration (MIC) ([1]; strain YT22): 6250 | Minimum inhibitory concentration (MIC) ([1]; strain YT23): 1562.5 | Minimum inhibitory concentration (MIC) ([1]; strain YT24): 6250 | Minimum inhibitory concentration (MIC) ([1]; strain YT25): 6250 | Minimum inhibitory concentration (MIC) ([1]; strain YT26): 6250 | Minimum inhibitory concentration (MIC) ([1]; strain YT27): 6250 | Minimum inhibitory concentration (MIC) ([1]; strain YT28): 1562.5 | Minimum inhibitory concentration (MIC) ([1]; strain YT29): 6250 | Minimum inhibitory concentration (MIC) ([1]; strain YT30): 25000 | survival rate ([2]; YT16, 2.5 mg/mL ampicillin without adding succinic acid, 4 hours): 61.04% | survival rate ([2]; YT16, 5 mg/mL ampicillin without adding succinic acid, 4 hours): 34.53% | survival rate ([2]; YT16, 10 mg/mL ampicillin without adding succinic acid, 4 hours (FIG. 1)): 25.99% | survival rate ([2]; YT16, 10 mg/mL ampicillin without adding succinic acid, 4 hours (FIG. 3)): 73.8% | survival rate ([2]; YT16, 20 mg/mL ampicillin without adding succinic acid, 4 hours): 12.47% | survival rate ([2]; YT16, only 10 mg/mL ampicillin added, 1 hour (FIG. 2)): 93.89% | survival rate ([2]; YT16, only 10 mg/mL ampicillin added, 4 hours (FIG. 2)): 47.34% | survival rate ([2]; YT16, only 10 mg/mL ampicillin added, 7 hours (FIG. 2)): 18.45% | survival rate ([2]; YT28, 2.5 mg/mL ampicillin without adding succinic acid, 4 hours): 68.38% | survival rate ([2]; YT28, 5 mg/mL ampicillin without adding succinic acid, 4 hours): 56.25% | survival rate ([2]; YT28, 10 mg/mL ampicillin without adding succinic acid, 4 hours (FIG. 1)): 35.87% | survival rate ([2]; YT28, 10 mg/mL ampicillin without adding succinic acid, 4 hours (FIG. 3)): 86.21% | survival rate ([2]; YT28, 20 mg/mL ampicillin without adding succinic acid, 4 hours): 27.09% | survival rate ([2]; YT28, only 10 mg/mL ampicillin added, 1 hour (FIG. 2)): 96.79% | survival rate ([2]; YT28, only 10 mg/mL ampicillin added, 4 hours (FIG. 2)): 26.79% | survival rate ([2]; YT28, only 10 mg/mL ampicillin added, 7 hours (FIG. 2)): 14.18% | Minimum inhibitory concentration (MIC) (E. coli K12): 6.1 | clearance of clinical Escherichia coli on the biofilms, used alone [3]: cannot clear

Gentamicin
Minimum inhibitory concentration (MIC) ([1]; strain YT1): 2.441 | Minimum inhibitory concentration (MIC) ([1]; strain YT2): 156.25 | Minimum inhibitory concentration (MIC) ([1]; strain YT3): 156.25 | Minimum inhibitory concentration (MIC) ([1]; strain YT4): 9.765 | Minimum inhibitory concentration (MIC) ([1]; strain YT5): 625 | Minimum inhibitory concentration (MIC) ([1]; strain YT6): 156.25 | Minimum inhibitory concentration (MIC) ([1]; strain YT7): 625 | Minimum inhibitory concentration (MIC) ([1]; strain YT8): 625 | Minimum inhibitory concentration (MIC) ([1]; strain YT9): 156.25 | Minimum inhibitory concentration (MIC) ([1]; strain YT10): 625 | Minimum inhibitory concentration (MIC) ([1]; strain YT11): 2500 | Minimum inhibitory concentration (MIC) ([1]; strain YT12): 2500 | Minimum inhibitory concentration (MIC) ([1]; strain YT13): 2500 | Minimum inhibitory concentration (MIC) ([1]; strain YT14): 2500 | Minimum inhibitory concentration (MIC) ([1]; strain YT15): 2500 | Minimum inhibitory concentration (MIC) ([1]; strain YT16): 2500 | Minimum inhibitory concentration (MIC) ([1]; strain YT17): 2500 | Minimum inhibitory concentration (MIC) ([1]; strain YT18): 2.441 | Minimum inhibitory concentration (MIC) ([1]; strain YT19): 625 | Minimum inhibitory concentration (MIC) ([1]; strain YT20): 156.25 | Minimum inhibitory concentration (MIC) ([1]; strain YT21): 2500 | Minimum inhibitory concentration (MIC) ([1]; strain YT22): 2500 | Minimum inhibitory concentration (MIC) ([1]; strain YT23): 156.25 | Minimum inhibitory concentration (MIC) ([1]; strain YT24): 625 | Minimum inhibitory concentration (MIC) ([1]; strain YT25): 2500 | Minimum inhibitory concentration (MIC) ([1]; strain YT26): 2500 | Minimum inhibitory concentration (MIC) ([1]; strain YT27): 625 | Minimum inhibitory concentration (MIC) ([1]; strain YT28): 2500 | Minimum inhibitory concentration (MIC) ([1]; strain YT29): 625 | Minimum inhibitory concentration (MIC) ([1]; strain YT30): 39.0625 | Minimum inhibitory concentration (MIC) (E. coli K12): 0.61
